Holding throughout (experiment): Lead Profiling Screen, Eurofins Panlabs
For one assay, the target named is Muscarinic M3 (Homo sapiens, UniProt P20309). It is filed as binding. As to conditions: Muscarinic M3, hum, read-out: % inh at 10 μM.
The next assay concerns the target Dopamine D3 (Homo sapiens, UniProt P35462). In kind it is binding. The conditions noted are these: Dopamine D3, hum, read-out: % inh at 10 μM. The source says:
(§1) Nonetheless, as a non-aryl/heterobiaryl acetylene mGlu5 NAM with an encouraging in vivo rodent PK profile, we wished to further assess VU6043653 as a novel chemotype. Therefore, we compared metabolites in multiple species to better understand species differences in clearance and metabolism. […] Consistent with the high plasma clearance observed in dogs, high turnover was observed more so in dog hepatocytes than any other species tested (see the Supporting Information for additional details and results). To further evaluate our novel chemotype, the off-target and safety/toxicity profiles for this compound were further investigated.
(§2) Table S2. Lead Profiling Screen – Eurofins Panlabs for VU6043653.

In the next assay the target is Adrenergic α1B (Homo sapiens, UniProt P35368). It is filed as binding. The conditions noted are these: hum, read-out: % inh at 10 μM.
Source text: as §1, §2

In a further assay the target is Adrenergic β1 (Homo sapiens, UniProt P08588). It is filed as binding. The conditions noted are these: Adrenergic β1, hum, read-out: % inh at 10 μM.
Source text: as §1, §2

For the next assay, the target named is Endothelin ETA (Homo sapiens, UniProt P25101). It is filed as binding. As to conditions: hum, read-out: % inh at 10 μM.
Source text: as §1, §2

For the next assay, the target named is Adenosine A2A (Homo sapiens, UniProt P29274). It is filed as binding. As to conditions: hum, read-out: % inh at 10 μM.
Source text: as §1, §2

In a further assay the target is Cannabinoid CB1 (Homo sapiens, UniProt P21554). It is filed as binding. As to conditions: Cannabinoid CB1, hum, read-out: % inh at 10 μM.
Source text: as §1, §2

The target of the next assay is GABAB1A (Homo sapiens, UniProt Q9UBS5). In kind it is binding. The conditions noted are these: hum, read-out: % inh at 10 μM.
Source text: as §1, §2

Another assay has as its target Adrenergic α2A (Homo sapiens, UniProt P08913). In kind it is binding. As to conditions: hum, read-out: % inh at 10 μM.
Source text: as §1, §2

The next assay deals with Adrenergic β2 (Homo sapiens, UniProt P07550). In kind it is binding. As to conditions: Adrenergic β2, hum, read-out: % inh at 10 μM.
Source text: as §1, §2

The next assay deals with Dopamine D2S (Homo sapiens, UniProt P14416). In kind it is binding. As to conditions: hum, read-out: % inh at 10 μM.
Source text: as §1, §2

In the next assay the target is Adenosine A1 (Homo sapiens, UniProt P30542). In kind it is binding. As to conditions: Adenosine A1, hum, read-out: % inh at 10 μM.
Source text: as §1, §2

The target of a further assay is Dopamine D1 (Homo sapiens, UniProt P21728). It is filed as binding. The conditions noted are these: Dopamine D1, hum, read-out: % inh at 10 μM.
Source text: as §1, §2

In another assay the target is Bradykinin B2 (Homo sapiens, UniProt P30411). In kind it is binding. The conditions noted are these: Bradykinin B2, hum, read-out: % inh at 10 μM.
Source text: as §1, §2

In a further assay the target is Bradykinin B1 (Homo sapiens, UniProt P46663). In kind it is binding. The conditions noted are these: Bradykinin B1, hum, read-out: % inh at 10 μM.
Source text: as §1, §2

The next assay has as its target Adrenergic α1A (Homo sapiens, UniProt P35348). It is filed as binding. As to conditions: hum, read-out: % inh at 10 μM.
Source text: as §1, §2

The target of the next assay is Dopamine D4.4 (Homo sapiens, UniProt P21917). In kind it is binding. The conditions noted are these: Dopamine D4.4, hum, read-out: % inh at 10 μM.
Source text: as §1, §2

The target in a further assay is Histamine H3 (Homo sapiens, UniProt Q9Y5N1). It is filed as binding. The conditions noted are these: Histamine H3, hum, read-out: % inh at 10 μM.
Source text: as §1, §2

For another assay, the system named is Potassium Channel [KATP]. It is filed as binding, hamster. The conditions noted are these: ham.

This is an account of results in publication PMC11647725, “Discovery of 4-(5-Membered)Heteroarylether-6-methylpicolinamide Negative Allosteric Modulators of Metabotropic Glutamate Receptor Subtype 5” (ACS Medicinal Chemistry Letters, 2024).

Chain of Adrenergic α1B (P35368 whole entry): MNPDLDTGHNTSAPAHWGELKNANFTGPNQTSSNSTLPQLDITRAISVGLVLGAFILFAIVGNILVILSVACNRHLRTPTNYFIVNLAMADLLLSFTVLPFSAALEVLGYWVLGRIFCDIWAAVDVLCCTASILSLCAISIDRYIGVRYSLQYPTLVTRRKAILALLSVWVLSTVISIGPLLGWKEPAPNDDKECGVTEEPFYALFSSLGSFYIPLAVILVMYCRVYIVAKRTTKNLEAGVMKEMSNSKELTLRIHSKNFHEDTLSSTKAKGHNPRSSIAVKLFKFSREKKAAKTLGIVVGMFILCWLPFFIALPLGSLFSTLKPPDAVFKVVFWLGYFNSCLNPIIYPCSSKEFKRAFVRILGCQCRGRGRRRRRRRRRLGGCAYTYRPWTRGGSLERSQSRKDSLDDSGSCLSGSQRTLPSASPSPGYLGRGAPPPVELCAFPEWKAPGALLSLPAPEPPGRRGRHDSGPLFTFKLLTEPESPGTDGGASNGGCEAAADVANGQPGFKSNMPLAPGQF
Chain of Histamine H3 (Q9Y5N1 whole entry): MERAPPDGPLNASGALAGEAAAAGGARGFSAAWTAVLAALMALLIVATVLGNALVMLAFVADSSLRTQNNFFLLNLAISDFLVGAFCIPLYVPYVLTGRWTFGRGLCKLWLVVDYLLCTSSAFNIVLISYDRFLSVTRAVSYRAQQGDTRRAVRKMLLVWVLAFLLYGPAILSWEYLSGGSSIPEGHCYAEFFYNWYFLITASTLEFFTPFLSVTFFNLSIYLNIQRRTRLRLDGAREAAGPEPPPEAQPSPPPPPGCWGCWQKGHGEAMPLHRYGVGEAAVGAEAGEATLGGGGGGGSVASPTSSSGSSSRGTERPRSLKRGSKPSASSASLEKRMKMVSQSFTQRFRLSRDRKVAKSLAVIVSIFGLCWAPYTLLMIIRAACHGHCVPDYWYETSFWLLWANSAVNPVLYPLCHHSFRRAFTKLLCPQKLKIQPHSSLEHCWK
Chain of Adrenergic β1 (P08588 whole entry): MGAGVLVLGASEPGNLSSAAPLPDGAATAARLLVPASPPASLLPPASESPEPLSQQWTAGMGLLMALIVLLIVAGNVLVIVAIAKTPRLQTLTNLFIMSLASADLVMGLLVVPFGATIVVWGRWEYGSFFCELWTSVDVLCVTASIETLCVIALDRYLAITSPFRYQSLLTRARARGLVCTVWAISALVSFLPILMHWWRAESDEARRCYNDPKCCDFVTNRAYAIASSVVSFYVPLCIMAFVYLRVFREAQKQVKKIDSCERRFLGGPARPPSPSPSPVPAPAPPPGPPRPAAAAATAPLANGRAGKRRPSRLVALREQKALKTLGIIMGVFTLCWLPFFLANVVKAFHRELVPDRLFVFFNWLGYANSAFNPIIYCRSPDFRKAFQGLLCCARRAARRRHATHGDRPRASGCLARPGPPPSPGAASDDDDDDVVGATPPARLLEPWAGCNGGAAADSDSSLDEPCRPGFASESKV
Chain of Adrenergic β2 (P07550 whole entry): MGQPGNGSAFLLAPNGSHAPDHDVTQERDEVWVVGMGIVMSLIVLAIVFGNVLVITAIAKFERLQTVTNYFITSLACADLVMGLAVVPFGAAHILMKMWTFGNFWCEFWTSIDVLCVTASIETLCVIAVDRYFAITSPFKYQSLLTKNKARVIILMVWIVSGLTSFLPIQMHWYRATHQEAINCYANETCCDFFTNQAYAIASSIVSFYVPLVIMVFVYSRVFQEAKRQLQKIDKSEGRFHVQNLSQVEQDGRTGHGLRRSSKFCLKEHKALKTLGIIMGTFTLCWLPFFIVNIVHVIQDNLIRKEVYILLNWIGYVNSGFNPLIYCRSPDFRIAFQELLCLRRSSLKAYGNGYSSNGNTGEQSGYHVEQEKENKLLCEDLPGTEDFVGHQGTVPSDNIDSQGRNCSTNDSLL
Chain of Bradykinin B1 (P46663 whole entry): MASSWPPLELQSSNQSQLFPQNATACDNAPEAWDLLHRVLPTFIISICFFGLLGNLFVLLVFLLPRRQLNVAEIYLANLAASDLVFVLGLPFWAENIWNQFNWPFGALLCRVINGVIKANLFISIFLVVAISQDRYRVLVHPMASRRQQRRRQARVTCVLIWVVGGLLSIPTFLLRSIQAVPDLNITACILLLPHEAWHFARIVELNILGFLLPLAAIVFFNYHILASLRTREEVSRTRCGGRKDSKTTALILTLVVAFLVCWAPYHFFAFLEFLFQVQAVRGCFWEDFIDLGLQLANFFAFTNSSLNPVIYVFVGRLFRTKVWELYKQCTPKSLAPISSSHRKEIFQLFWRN
Chain of Muscarinic M3 (P20309 whole entry): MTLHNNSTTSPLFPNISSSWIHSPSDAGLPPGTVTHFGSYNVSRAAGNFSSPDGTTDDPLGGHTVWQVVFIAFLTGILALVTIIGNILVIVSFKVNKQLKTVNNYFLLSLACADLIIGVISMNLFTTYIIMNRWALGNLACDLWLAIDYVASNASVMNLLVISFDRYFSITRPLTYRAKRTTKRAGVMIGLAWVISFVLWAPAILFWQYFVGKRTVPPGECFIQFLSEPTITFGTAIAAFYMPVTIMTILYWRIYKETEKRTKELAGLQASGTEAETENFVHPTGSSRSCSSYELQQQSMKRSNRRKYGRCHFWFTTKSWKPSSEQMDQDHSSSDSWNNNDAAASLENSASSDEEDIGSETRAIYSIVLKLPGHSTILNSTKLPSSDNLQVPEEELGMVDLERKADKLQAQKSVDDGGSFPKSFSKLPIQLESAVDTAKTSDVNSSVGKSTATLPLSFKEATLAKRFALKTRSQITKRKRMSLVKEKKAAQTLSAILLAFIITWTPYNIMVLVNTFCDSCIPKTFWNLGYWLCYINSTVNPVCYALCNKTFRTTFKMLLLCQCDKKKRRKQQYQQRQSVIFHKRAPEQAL
Chain of Dopamine D3 (P35462 whole entry): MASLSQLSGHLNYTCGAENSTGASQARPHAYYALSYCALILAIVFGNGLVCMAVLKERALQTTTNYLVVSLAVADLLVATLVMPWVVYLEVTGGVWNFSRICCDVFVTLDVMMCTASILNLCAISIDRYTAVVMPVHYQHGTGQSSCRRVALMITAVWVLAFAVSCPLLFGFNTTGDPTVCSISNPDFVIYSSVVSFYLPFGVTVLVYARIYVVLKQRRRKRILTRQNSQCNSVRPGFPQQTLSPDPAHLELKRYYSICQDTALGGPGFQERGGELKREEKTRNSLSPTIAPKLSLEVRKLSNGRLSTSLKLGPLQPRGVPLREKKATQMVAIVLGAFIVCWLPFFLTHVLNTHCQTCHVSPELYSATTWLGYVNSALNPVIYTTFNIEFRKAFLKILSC
Chain of Dopamine D1 (P21728 whole entry): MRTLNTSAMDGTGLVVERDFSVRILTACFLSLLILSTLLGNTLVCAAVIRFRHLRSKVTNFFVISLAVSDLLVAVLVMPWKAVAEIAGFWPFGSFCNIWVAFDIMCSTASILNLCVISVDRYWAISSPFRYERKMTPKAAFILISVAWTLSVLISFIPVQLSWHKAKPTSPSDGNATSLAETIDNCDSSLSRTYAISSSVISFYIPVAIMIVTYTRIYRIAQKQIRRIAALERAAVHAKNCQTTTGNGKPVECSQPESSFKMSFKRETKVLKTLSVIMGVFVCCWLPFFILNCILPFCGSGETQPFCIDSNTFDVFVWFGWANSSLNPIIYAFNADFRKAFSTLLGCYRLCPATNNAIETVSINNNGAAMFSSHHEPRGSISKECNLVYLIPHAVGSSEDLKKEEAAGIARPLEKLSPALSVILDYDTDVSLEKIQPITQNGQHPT
Chain of Dopamine D4.4 (P21917 whole entry): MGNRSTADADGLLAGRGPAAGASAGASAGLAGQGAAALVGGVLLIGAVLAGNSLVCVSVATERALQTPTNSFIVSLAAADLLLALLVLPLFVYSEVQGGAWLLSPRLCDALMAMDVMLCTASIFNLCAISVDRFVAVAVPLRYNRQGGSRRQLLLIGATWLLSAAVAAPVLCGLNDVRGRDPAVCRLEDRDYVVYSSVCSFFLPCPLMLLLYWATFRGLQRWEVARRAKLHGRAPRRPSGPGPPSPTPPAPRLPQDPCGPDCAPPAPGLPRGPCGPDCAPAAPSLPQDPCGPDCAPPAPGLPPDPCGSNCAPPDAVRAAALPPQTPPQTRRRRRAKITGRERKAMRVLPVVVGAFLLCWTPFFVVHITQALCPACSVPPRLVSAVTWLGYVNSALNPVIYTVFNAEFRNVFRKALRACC
Chain of Adrenergic α2A (P08913 whole entry): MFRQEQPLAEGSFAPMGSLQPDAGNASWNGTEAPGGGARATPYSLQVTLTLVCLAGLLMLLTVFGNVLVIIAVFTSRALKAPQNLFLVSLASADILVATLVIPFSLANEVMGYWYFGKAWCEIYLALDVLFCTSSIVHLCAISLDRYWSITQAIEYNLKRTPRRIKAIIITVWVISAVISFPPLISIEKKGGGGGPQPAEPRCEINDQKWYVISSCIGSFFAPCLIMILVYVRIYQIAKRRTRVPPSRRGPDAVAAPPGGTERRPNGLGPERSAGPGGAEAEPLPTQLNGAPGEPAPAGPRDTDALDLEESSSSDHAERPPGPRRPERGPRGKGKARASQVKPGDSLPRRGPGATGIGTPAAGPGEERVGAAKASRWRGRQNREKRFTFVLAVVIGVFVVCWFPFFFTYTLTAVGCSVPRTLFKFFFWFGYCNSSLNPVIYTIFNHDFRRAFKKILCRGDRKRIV
Chain of Dopamine D2S (P14416 1-414 isoform P14416-2): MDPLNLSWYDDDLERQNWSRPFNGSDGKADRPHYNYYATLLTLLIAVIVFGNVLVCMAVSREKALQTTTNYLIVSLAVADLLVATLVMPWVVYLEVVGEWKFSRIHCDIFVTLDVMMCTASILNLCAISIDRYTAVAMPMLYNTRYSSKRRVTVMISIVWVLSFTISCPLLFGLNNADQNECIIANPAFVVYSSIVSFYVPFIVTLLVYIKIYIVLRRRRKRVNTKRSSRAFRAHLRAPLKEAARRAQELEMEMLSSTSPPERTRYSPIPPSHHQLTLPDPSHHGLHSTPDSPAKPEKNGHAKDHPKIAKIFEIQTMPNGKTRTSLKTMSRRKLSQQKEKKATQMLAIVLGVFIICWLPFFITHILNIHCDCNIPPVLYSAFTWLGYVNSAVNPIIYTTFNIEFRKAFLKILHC

Take `Cc1cc(Oc2cnn(C)c2)cc(C(=O)Nc2ccc(F)cn2)n1` [22iA]: the inhibition at 10 µM on Muscarinic M3 is -15%; at Dopamine D3, -6%; at Adrenergic α1B, 3%; at Adrenergic β1, -4%; on Endothelin ETA, -2%; on Adenosine A2A, 9%. Moreover, the inhibition at 10 µM is 15% on Cannabinoid CB1; 3% at GABAB1A; 8% on Adrenergic α2A; -5% on Adrenergic β2; -10% at Dopamine D2S; 20% at Adenosine A1. Moreover, the inhibition at 10 µM on Dopamine D1 was -2%; at Bradykinin B2, 1%; on Bradykinin B1 it was 4%; on Adrenergic α1A, 0%; on Dopamine D4.4, -9%; at Histamine H3 it was 5%. Besides, the “% inh at 10 μM” value in the assay on Potassium Channel [KATP] is reported as 2%.
